From the METLIN SMRT retention time set (Domingo-Almenara et al. 2019) come the findings set out here.

The data set can be described thus: gradient 5% acetonitrile 3 min, to 50% in 2 min, to 85% in 15 min, held 3 min, 100 µL/min. The following applies: column: Zorbax Extend-C18 2.1 x 50 mm; eluents: water / acetonitrile, 0.1% formic acid. The method, boiled down:
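Values are retention times taken from adduct peaks that software picked and an analyst inspected. The pure standards were run as mixtures of ~100 molecules on HPLC linked to a quadrupole time-of-flight mass spectrometer, in positive and negative ionization mode. A Zorbax Extend-C18 column (2.1 × 50 mm, 1.8 μm) was used at 100 μL/min with water and acetonitrile, each including 0.1% formic acid.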
`CCCCOc1ccc(S(=O)(=O)N2CCN(c3nc(C)cc(N4CCOCC4)n3)CC2)cc1` returned an RP-LC retention time of 818 s.

The molecule `COc1cccc(-c2nnc(Cc3nc(-c4ccccc4Cl)no3)o2)c1` yielded an RP-LC retention time of 1020 s.

On to `Cc1ccn2cc(C(=O)N3CCN(c4ccccc4Cl)CC3)nc2c1`, for which the RP-LC retention time is 722 s.

For the molecule `C=CCN1C[C@H](C)N([C@H](c2ccccc2)c2ccc(C(=O)N(CC)CC)cc2)C[C@H]1C`, the RP-LC retention time was 702 s.

In the case of `CC(C)(C)OC(=O)Cn1nc2ccc(S(=O)(=O)N3CCSCC3)cn2c1=O`, the RP-LC retention time stood at 888 s.

As to `CCC(C)Sc1nnc(NC(=O)C2CCN(C(=O)c3ccccc3)CC2)s1` (centres undefined), the RP-LC retention time worked out at 854 s.

In turn, `Cc1ccc(C)c(NC(=O)Cn2ccc3sccc3c2=O)c1` returned an RP-LC retention time of 742 s.

`C[C@H]1CN(C(=O)c2ccc3ccccc3n2)C[C@@H]1c1nc(-c2cccnc2)no1` yielded an RP-LC retention time of 821 s.

`CN(CCc1noc(-c2ccccc2)n1)C(=O)CSc1ccccc1`: the RP-LC retention time stood at 959 s.

Turning to `COc1ccc(CC(=O)N2CCc3cn(C)c4cccc(c34)C2)cc1`, the RP-LC retention time was 946 s.

With `O=C(NCCc1ccco1)C1CCN(c2nc3cccnc3s2)CC1`, the RP-LC retention time was found to be 697 s.

On to `CCC(C)NC(=O)c1ccc(CN2CCN(Cc3ccc(F)cc3)C(=O)C2=O)cc1` (centres undefined), for which the RP-LC retention time stood at 739 s.

As for `O=S(=O)(Nc1nc2ccc(S(=O)(=O)N3CCCC3)cc2s1)c1ccc(F)cc1`, the RP-LC retention time was found to be 773 s.

The molecule `O=C(CN1C(=O)C2CCCCN2c2ccc(S(=O)(=O)N3CCCC3)cc21)NCc1cccs1` (centres undefined) yielded an RP-LC retention time of 882 s.

As to `O=C(NCc1ccccc1Cl)C1CCCN(c2nccnc2Sc2ccccc2)C1` (centres undefined), the RP-LC retention time amounted to 1070 s.

`NS(=O)(=O)c1ccc(CCNS(=O)(=O)c2cc(-c3ccno3)cs2)cc1` registered an RP-LC retention time of 748 s.

Molecule `O=S(=O)(Nc1ccccc1)c1cccc(-c2nc(-c3ccccc3)no2)c1` came in with an RP-LC retention time of 1210 s.

`COC(=O)c1cccc(N2C=C(C#N)S(=O)(=O)c3c(F)cccc32)c1`: the RP-LC retention time turned out to be 847 s.

Molecule `CCOc1ccccc1NC(=O)C1CCN(S(C)(=O)=O)c2cc(C)ccc2O1` (centres undefined) had an RP-LC retention time of 830 s.

`COC(=O)c1ccc(NC(=O)Cn2c(=O)cc(-c3nc(C(C)C)no3)c3ccccc32)cc1` had an RP-LC retention time of 990 s.

With `O=C(CN1CCN(Cc2ccccc2F)C1=O)N1CCN(c2ccccc2F)CC1`, the RP-LC retention time was 857 s.

`COc1ccc(NC(=O)C2CCCN(c3cc(=O)n(C)c(=O)n3C)C2)cc1OC` (centres undefined) showed an RP-LC retention time of 637 s.

In the case of `COc1ccc(CNC(=O)c2ccc3[nH]c4c(c3c2)CN(C(C)=O)CC4)c(OC)c1`, the RP-LC retention time was found to be 680 s.

Take `COc1ccccc1CNC(=O)c1ccc2c(c1)N(C)C(=O)c1ccccc1O2`: the RP-LC retention time is 862 s.

`CCC(=O)N1CC(=O)Nc2ccc(Br)cc2C1c1ccccc1` (centres undefined) had an RP-LC retention time of 749 s.

Take `CC(C)c1ccc(NC(=O)Cn2cccc2-c2nnc(C3CC3)o2)cc1`: the RP-LC retention time came out at 961 s.

As for `CCc1ccc(NC(=O)N2CCC(n3cnc4c(C)cccc4c3=O)CC2)cc1`, the RP-LC retention time stood at 838 s.

For the molecule `COCCc1noc(-c2ccccc2OC2CNC2)n1`, the RP-LC retention time was 590 s.

`CC(=O)Nc1ccc(SCC(=O)c2ccc(Cl)cc2)nn1`: the RP-LC retention time stood at 756 s.

For the molecule `CCCC(=O)Nc1ccc2c(c1)CN(C(=O)Cc1ccc(C)cc1)C(C(=O)N(C)C)C2` (centres undefined), the RP-LC retention time came out at 748 s.

Consider `CCn1c(CCNC(=O)c2ccccc2F)nc2cccnc21`, for which the RP-LC retention time turned out to be 602 s.

Turning to `Cc1cnc(C2CN(C3CCCCCC3)C2)n1Cc1cccnc1`, the RP-LC retention time amounted to 608 s.

Consider `O=C1NC(=O)c2cc(Nc3ccccc3)c(Nc3ccccc3)cc21`, for which the RP-LC retention time amounted to 1040 s.

The molecule `O=c1oc(-c2ccccc2)c(-c2ccccc2)c2ccccc12` yielded an RP-LC retention time of 1030 s.

`O=C(Nc1cccc(-c2ccn[nH]2)c1)c1ccco1`: the RP-LC retention time came out at 631 s.

`O=S(=O)(Cc1ccccc1)N1CCCC(c2nnnn2-c2ccccc2)C1` (centres undefined) had an RP-LC retention time of 905 s.

`O=C(Nc1ccccc1C(=O)N1CCN(c2ccccc2F)CC1)C1=CSCCO1` returned an RP-LC retention time of 927 s.

For the molecule `O=C1COc2ccccc2N1Cc1nc(-c2ccc3c(c2)nnn3C2CCCC2)no1`, the RP-LC retention time was found to be 1030 s.

`O=C(CSc1nnc2c3cc(-c4ccc(F)cc4)nn3ccn12)Nc1ccc(F)cc1Cl` registered an RP-LC retention time of 940 s.

Consider `CCCCCNC(=O)C1CCCN(c2ncc(-c3ccccc3)cn2)C1` (centres undefined), for which the RP-LC retention time was determined as 1090 s.

For `O=C(Cn1nc(-c2ccccc2)c2cc(Cl)ccc21)NCc1cccnc1`, the RP-LC retention time was 712 s.

In turn, `CN(CC1(C)CCOCC1)S(=O)(=O)c1ccc(F)c(F)c1` had an RP-LC retention time of 910 s.

`Cc1cc(C)cc(NC(=O)N2CCCC(Cn3cnc4cccnc43)C2)c1` (centres undefined): the RP-LC retention time turned out to be 680 s.

On to `CCOc1ccc(-n2c(N3CCN(CC)CC3)nc3cc(C(=O)OC)ccc3c2=O)cc1`, for which the RP-LC retention time was determined as 683 s.

`COCCC1CCN(C(=O)CN(C)C(=O)COc2ccccc2)CC1` showed an RP-LC retention time of 694 s.

As to `Cn1c(CNC(=O)c2ccc3c(c2)N(S(C)(=O)=O)CC3)nc2ccccc21`, the RP-LC retention time was 604 s.

The molecule `COc1ccc(C2C(C(=O)N3CCOCC3)c3cc(OC)c(OC)cc3C(=O)N2C)cc1OC` (centres undefined) showed an RP-LC retention time of 637 s.

For the molecule `Cc1oc(-c2[nH]ncc2C(=O)N(C)C)cc1S(=O)(=O)NC1CCCC1`, the RP-LC retention time amounted to 650 s.

With `Cc1ccc(CNC(=O)CCc2c(C)nn(-c3cc(N4CCCC4)ncn3)c2C)o1`, the RP-LC retention time was 745 s.

In turn, `Cc1cc(NC(=O)Cn2ccn3nc(-c4ccccc4)c(CO)c3c2=O)n[nH]1` yielded an RP-LC retention time of 644 s.

The molecule `Cc1ccc2oc(-c3nnc(C(=O)NCCCN4CCN(C)CC4)o3)c(C)c2c1` came in with an RP-LC retention time of 622 s.

Consider `Cc1ccn2c(NC(=O)c3ccc(Cl)c([N+](=O)[O-])c3)c(-c3ccccc3)nc2c1`, for which the RP-LC retention time worked out at 700 s.

Consider `O=C(Nc1ccc(S(=O)(=O)N2CCOCC2)cc1)c1ccc(Cl)s1`, for which the RP-LC retention time stood at 767 s.

For `Cc1nnc(NC(=O)CN2CCC(c3nnc(C(F)(F)F)o3)CC2)s1`, the RP-LC retention time was 545 s.

The molecule `O=C(Nc1cccc(Cl)c1)C1CCN(c2cc(N3CCCC3)ncn2)CC1` displayed an RP-LC retention time of 714 s.

Regarding `O=C(Nc1ccc2c(c1)OCO2)C1CCCN(c2ncc(-c3ccc(F)cc3)cn2)C1` (centres undefined), the RP-LC retention time was 1060 s.

In turn, `Cc1ccc2c(c1)C(c1ccc(F)cc1)N(C(=O)c1ccc(S(=O)(=O)N(C)C)cc1)CC(=O)N2` (centres undefined) displayed an RP-LC retention time of 885 s.

`COc1ccc(-c2nnc(-c3ccc(C)c(S(=O)(=O)NC(C)C)c3)o2)cc1OC` came in with an RP-LC retention time of 873 s.

Molecule `O=C(Cc1cccc(F)c1)Nc1cc(-c2cccs2)no1` came in with an RP-LC retention time of 947 s.

In the case of `O=S(=O)(c1cc(-c2nnc(C3CC3)o2)co1)N1CCN(c2cccc(Cl)c2)CC1`, the RP-LC retention time was 1060 s.

`O=C1C2C3C=CC(C3)C2C(=O)N1CCN1CCN(Cc2ccc([N+](=O)[O-])cc2)CC1` (centres undefined): the RP-LC retention time amounted to 563 s.

`Cc1nc(-c2cccc(NC(=O)Cc3csc(Nc4ncccn4)n3)c2)cs1` showed an RP-LC retention time of 731 s.

The molecule `Cc1sc(-n2cccc2)nc1C(=O)N1CCN(c2ccccn2)CC1` had an RP-LC retention time of 623 s.

For `CC(=O)Nc1ccc(C(=O)Nc2ccccc2N)cc1`, the RP-LC retention time turned out to be 629 s.

In the case of `COc1ccccc1CCC(=O)N1CCCn2nc(-c3ccc(C)cc3)cc2C1`, the RP-LC retention time was 1020 s.

In the case of `Cc1cc(C)cc(S(=O)(=O)N2CCC3(CC2)NCCN=C3NCc2cccc(F)c2)c1`, the RP-LC retention time is 772 s.

Molecule `O=C(NCCc1ccccc1)N1CCN(C(=O)N2C[C@H]3C[C@H](C2)[C@H]2CCCC(=O)N2C3)CC1` returned an RP-LC retention time of 629 s.

In turn, `O=C(Cn1cc(-c2nnco2)c2ccccc21)NCc1cccc(Br)c1` displayed an RP-LC retention time of 774 s.

Take `Cc1cnc(C2CC2)n1C1CCCN(S(=O)(=O)c2ccccc2)C1` (centres undefined): the RP-LC retention time was determined as 654 s.

For the molecule `CC(=O)N1CCN(CCOc2ccc(C3CCN(C4=Nn5c(nnc5C(F)(F)F)CC4)CC3)cc2)CC1`, the RP-LC retention time worked out at 686 s.

In turn, `CCn1nc(-c2ccccc2)c(-c2ccccc2)c(C(=O)OC)c1=O` displayed an RP-LC retention time of 973 s.

`Cc1ccc(F)cc1NS(=O)(=O)c1cn(CC(C)C)c2ncccc12`: the RP-LC retention time is 993 s.

Regarding `COCCOC1CCC12CCN(C(=O)c1conc1C)CC2` (centres undefined), the RP-LC retention time was 706 s.

The molecule `O=C(CSc1ccc(N2CCCC(C(=O)NC3CC3)C2)nn1)NCc1cccc(C(F)(F)F)c1` (centres undefined) displayed an RP-LC retention time of 678 s.

In turn, `Cc1nnc2ccc(N3CCCC3)nn12` displayed an RP-LC retention time of 726 s.

With `Cc1cc(C2CCCN2C(=O)c2cnn3c(C(F)(F)F)cc(-c4ccco4)nc23)on1` (centres undefined), the RP-LC retention time amounted to 855 s.

The molecule `O=C(c1cc(=O)c2ccccc2o1)N1CC2CC(C1)c1cccc(=O)n1C2` (centres undefined) displayed an RP-LC retention time of 598 s.

For the molecule `COc1cccc(-c2nc(-c3ccc4c(c3)ncn4CCN3CCCC3)no2)c1`, the RP-LC retention time is 653 s.

`COc1ccc(NS(=O)(=O)c2c(C)nn(-c3ccc(-c4ccc(C)cc4)nn3)c2C)cc1` yielded an RP-LC retention time of 1060 s.
